Assay results reported in US11547842B2, “Methods for cancer treatment” (The Board of Trustees of the Leland Stanford Junior …, priority 2013, dated 2023).
Where two headings read alike, the source gives them in different places.

Tests used:
mycosis fungoides [1] = conditions: human, in vivo
mycosis fungoides [2] = experiment: Therapy history of patient 3 before SD-101 (clinical response, tolerability)

Compound	reason the therapy was stopped (toxicity) (mycosis fungoides [1])	reason the therapy was stopped (toxicity) (mycosis fungoides [2])	response to therapy (mycosis fungoides [2]; Zolinza with 12 Gy TSEBT, Targretin 300 mg daily, SGN-35 clinical trial)
SGN-35: agent of the SGN-35 clinical trial in which patient 3 participated	too much toxicity	–	–
C=C(c1ccc(C(=O)O)cc1)c1cc2c(cc1C)C(C)(C)CCC2(C)C [Targretin]	–	hypertriglyceridemia	partial response in the skin
